# Source: US6946470B2, “Method of treating psychosis in a patient” (Medical and Pharmaceutical Industry Technology and …, priority 2002, dated 2005)
# Assays:
# [1] = biological target: T1, serotonin 5-HT2 receptors (Rattus norvegicus, UniProt P14842); assay: Serotonin 5-HT2 receptor binding assay ([3H]Ketanserin); details: 30 nM, rat whole brain membranes
# T1 construct: from tissue; host or cells: rat whole brain (except cerebellum) membranes
# Experimental: Serotonin 5-HT2 Receptor Binding Assay
# This assay measures binding of [^3H]Ketanserin to serotonin 5-HT2 receptors. Whole brain (except cerebellum) membranes of male Wistar derived rats weighing 175±25 g were prepared in Tris-HCl pH 7.7 buffer. A 10 mg aliquot of membrane was incubated with 0.5 nM [^3H]Ketanserin for 40 minutes at 25° C. Non-specific binding was estimated in the presence of 1 μM Ketanserin. Membranes were filtered and washed three times and the filters were counted to determine [^3H]Ketanserin specifically bound. [Reference: Leysen J E, Niemegeers C J, Van Nauten J M, Laduron D M. Mol. Pharmacol. 21: 301-314, 1982]
# [2] = biological target: T2, human dopamine D2L receptors (Homo sapiens, UniProt P14416); assay: Dopamine D2L receptor binding assay ([3H]Spiperone); details: 30 nM, CHO cell membranes
# T2 construct: expressed in transfected cells
# T2 sequence (P14416 whole entry): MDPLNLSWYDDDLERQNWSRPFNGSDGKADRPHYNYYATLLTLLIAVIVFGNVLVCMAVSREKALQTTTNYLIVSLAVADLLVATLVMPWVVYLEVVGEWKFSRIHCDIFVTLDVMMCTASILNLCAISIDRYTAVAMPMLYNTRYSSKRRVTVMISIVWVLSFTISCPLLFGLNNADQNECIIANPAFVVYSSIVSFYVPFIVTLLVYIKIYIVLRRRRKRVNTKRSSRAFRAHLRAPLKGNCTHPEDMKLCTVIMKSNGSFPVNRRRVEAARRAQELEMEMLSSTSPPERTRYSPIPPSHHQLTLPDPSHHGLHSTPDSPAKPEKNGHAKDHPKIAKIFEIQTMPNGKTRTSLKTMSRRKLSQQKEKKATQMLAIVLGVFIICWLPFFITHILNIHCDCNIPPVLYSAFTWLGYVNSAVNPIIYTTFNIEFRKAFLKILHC
# Experimental: Dopamine D2L Receptor Binding Assay
# This assay measures binding of [^3H]Spiperone to human dopamine D2L receptors. CHO cells stably transfected with a plasmid encoding the human dopamine D2L receptor were used to prepare membranes in modified Tris-HCl pH 7.4 buffer. A 20 μg aliquot of membrane, in the presence or absence of a test compound, was incubated with 0.16 nM [^3H]Spiperone for 120 minutes at 25° C. Non-specific binding was estimated in the presence of 10 μM hapoperidol. Membranes were filtered and washed three times and the filters were counted to determine [^3H]Spiperone specifically bound. [References: Grandy D K, Marchionni M A, Makam H, Stofko R E, Alfano M, Frothingham L, Fischer J B, Burker-Howie K J, Bunzow J R, Server A C. Proc. Natl. Acad. Sci. (USA) 86: 9762-9766, 1989; Bunzow J R, Van Tol H H, Grandy D K, Albert P, Salon J, Christie M, Machida C A, Neve K A, Civelli O. Nature 336: 783-787, 1988; Hayes G, Biden T J, Selbie L A, Shine J. Mol. Endocrin. 6: 920-926, 1992]
# [3] = test system: apomorphine-induced climbing behavior in mice; assay: Effects on apomorphine-induced climbing behavior; assay type: in vivo; details: for Inhibition % of apomorphine-induced climbing behavior: apomorphine 1 mg/kg SC 60 min after dosing; for Agonist activity (score): group score 0-6, 30 to 60 minutes post-dosing, 3 mice
# Experimental: Climbing behavior was scored 0-2 for each animal from 30 to 60-minutes post-dosing: all four paws on floor=0, both forefeet holding the wall=1, all four paws on wall=2. Consequently, maximum possible group score was 2×3 mice=6. A score of 3 or more (≧3) during this 30 minute observation period denotes dopamine-agonist activity. Mice in which no significant dopamine agonist activity occurred were then used to determine antagonistic activity. […] [Reference: Psychopharmacology 50: 1-6, 1976] Percentage inhibition of test substance on apomorphine-induced climbing behavior is calculated as follows: [formula]
# T1 sequence (P14842 whole entry): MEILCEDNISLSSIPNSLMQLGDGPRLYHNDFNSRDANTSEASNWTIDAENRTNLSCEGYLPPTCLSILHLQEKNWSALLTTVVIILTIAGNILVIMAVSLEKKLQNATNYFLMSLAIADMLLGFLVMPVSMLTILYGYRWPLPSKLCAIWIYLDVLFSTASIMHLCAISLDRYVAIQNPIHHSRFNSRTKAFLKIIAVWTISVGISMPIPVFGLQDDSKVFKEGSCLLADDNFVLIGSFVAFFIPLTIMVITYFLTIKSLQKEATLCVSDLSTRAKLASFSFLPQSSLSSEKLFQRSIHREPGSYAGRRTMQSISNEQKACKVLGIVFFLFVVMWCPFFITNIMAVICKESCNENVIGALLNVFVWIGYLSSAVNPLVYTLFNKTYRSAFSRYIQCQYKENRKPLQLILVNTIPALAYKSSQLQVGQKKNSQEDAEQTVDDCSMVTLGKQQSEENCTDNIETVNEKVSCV
SMILES,Inhibition % 5-HT2 [1],Inhibition % D2L [2],inhibition at 0.03 µM [1],inhibition at 0.03 µM [2],also measured
"O=C1Nc2ccccc2C2=NC(CN3CCN(C(c4ccccc4)c4ccc(Cl)cc4)CC3)CN12 (stereo not shown) [PDC-131, 2-[1-(4-chlorobenzhydryl)piperazinyl]methyl-2,3-dihydroimidazo[1,2-c]-quinazolin-5(6H)-one]",47%,10%,,,
"O=C1Nc2ccccc2C2=NC(CN3CCN(Cc4ccc5c(c4)OCO5)CC3)CN12 (stereo not shown) [PDC-123, 2-[4-piperonyl-1-piperazinyl]methyl-2,3-dihydroimidazo[1,2-c]-quinazolin-5(6H)-one]",,,4%,11%,
"O=C1Nc2ccccc2C2=NC(CNC3CCN(Cc4ccccc4)CC3)CN12 (stereo not shown) [PDC-126, 2-[1-benzylpiperidin-4-yl]aminomethyl-2,3-dihydroimidazo[1,2-c]-quinazolin-5(6H)-one]",,,11%,29%,
"O=C1Nc2ccccc2C2=NC(CN3CCN(Cc4ccccc4)CC3)CN12 (stereo not shown) [PDC-121, 2-[4-benzyl-1-piperazinyl]methyl-2,3-dihydroimidazo[1,2-c]quinazolin-5(6H)-one]",,,21%,18%,
"O=C1Nc2ccccc2C2=NC(CN3CCN(Cc4ccc(F)cc4)CC3)CN12 (stereo not shown) [PDC-127, 2-[4-(4-fluorobenzyl)-1-piperazinyl]methyl-2,3-dihydroimidazo[1,2-c]quinazolin-5(6H)-one]",,,20%,11%,
"O=C1Nc2ccccc2C2=NC(CC3CCC4(CCCCC4)NC3)CN12 (stereo not shown) [PDC-122, 3-{2,3-dihydroimidazo[1,2-c]quinazolin-5(6H)-one-2-yl}methyl-azaspiro-[5,5]undecane]",,,2%,13%,
"COc1ccc(N2CCN(CC3CN4C(=O)Nc5ccccc5C4=N3)CC2)cc1 (stereo not shown) [PDC-132, 2-[1-(4-methoxyphenyl)piperazinyl]methyl-2,3-dihydroimidazo[1,2-c]-quinazolin-5(6H)-one]",5%,15%,,,
"O=C(c1ccc(F)cc1)C1CCN(CC2CN3C(=O)Nc4ccccc4C3=N2)CC1 (stereo not shown) [PDC-130, 2-[1-(4-p-fluorobenzoyl)piperidinyl]methyl-2,3-dihydroimidazo[1,2-c]-quinazolin-5(6H)-one]",88%,16%,,,Inhibition % of apomorphine-induced climbing behavior ([3]; PO 1 mg/kg): 0%; Agonist activity (score) ([3]; PO 1 mg/kg): 0; Inhibition % of apomorphine-induced climbing behavior ([3]; PO 3 mg/kg): 60%; Agonist activity (score) ([3]; PO 3 mg/kg): 0; Inhibition % of apomorphine-induced climbing behavior ([3]; PO 10 mg/kg): 100%; Agonist activity (score) ([3]; PO 10 mg/kg): 0; Inhibition % of apomorphine-induced climbing behavior ([3]; PO 30 mg/kg): 100%; Agonist activity (score) ([3]; PO 30 mg/kg): 0
"O=C1Nc2ccccc2C2=NC(CN3CCC(Cc4ccccc4)CC3)CN12 (stereo not shown) [PDC-124, 2-[4-Benzyl-1-piperidinyl]methyl-2,3-dihydroimidazo[1,2-c]quinazolin-5(6H)-one]",,,62%,14%,Inhibition % of apomorphine-induced climbing behavior ([3]; PO 30 mg/kg): 50%; Agonist activity (score) ([3]; PO 30 mg/kg): 0
